Data taken from ChEMBL document CHEMBL3352299, “Antiproliferative 4-(1,2,4-oxadiazol-5-yl)piperidine-1-carboxamides, a new tubulin inhibitor chemotype” (Bioorg Med Chem Lett, 2014).

System: K562
Experiment: Induction of mitotic arrest in human K562 cells assessed as mitotic indices at 100 uM by light microscopy
Type: functional

COc1ccc(/C=C\c2cc(OC)c(OC)c(OC)c2)cc1O [COMBRETASTATIN A4]
Activity: 82%
